This note sets out measurements from PMC11111404, “Discovery of potent small-molecule inhibitors of lipoprotein(a) formation” (Nature, 2024).

One data set concerns the target T1, apo(a) KIV5–8 (Homo sapiens, UniProt P08519).
T1 construct: made in house
T1 sequence (P08519 1043-1470 limits assumed): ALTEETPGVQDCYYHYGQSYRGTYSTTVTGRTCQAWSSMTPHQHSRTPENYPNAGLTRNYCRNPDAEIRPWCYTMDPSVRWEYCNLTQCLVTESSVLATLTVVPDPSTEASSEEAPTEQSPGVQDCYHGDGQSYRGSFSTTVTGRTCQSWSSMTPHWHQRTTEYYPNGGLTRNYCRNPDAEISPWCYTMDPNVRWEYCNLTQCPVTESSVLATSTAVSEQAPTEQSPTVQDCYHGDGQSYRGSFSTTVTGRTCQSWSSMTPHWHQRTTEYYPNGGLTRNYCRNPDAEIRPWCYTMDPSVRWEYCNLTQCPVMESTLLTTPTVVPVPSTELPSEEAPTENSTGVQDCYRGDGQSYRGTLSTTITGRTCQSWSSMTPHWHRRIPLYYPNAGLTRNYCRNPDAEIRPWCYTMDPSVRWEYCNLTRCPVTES
The data set is described as follows: ITC binding to apo(a) KIV5–8. As for the experimental part:
The nucleotide sequence encoding the human LPA gene (NP_005568.2) was inserted into a mammalian expression vector containing a cytomegalovirus promoter. Protein expression was performed by transient transfection of human embryonic kidney 293 (HEK293) cells cultured in serum-free medium. The culture medium was collected five days after transfection and human apo(a) protein was purified using L-lysine affinity chromatography. Nucleotide sequences encoding various KIV domains of human apo(a) and human and rat plasminogen were inserted into a pET21a Escherichia coli expression vector. Bacterial BL21(DE3) was used as the expression host, and the induction of protein expression was performed in 2× TY medium with 1 mM isopropyl β-D-1-thiogalactopyranoside at 37 °C for 5 h. Cells were collected and stored at –80 °C for subsequent protein purification and refolding. […] All protein concentrations were determined by A280.
Experiments were performed on a MicroCal Auto-iTC200 titration calorimeter (Malvern Panalytical), with a cell volume of 200 μl and a 40-μl microsyringe. […] The microsyringe was loaded with a solution of the respective compounds, with the concentration measured by quantitative nuclear magnetic resonance, and was inserted into the calorimetric cell prefilled with the respective recombinant proteins of known concentration in ITC buffer. […]

Another data set deals with Plg mRNA. The experiment in a line: Rat hepatic Plg mRNA after oral dosing. The class given is in vivo. Particulars: rats, daily oral dosing. As for the experimental part: Male Sprague Dawley rats (Charles River, average body weight 310 g, aged eight to nine weeks old) were housed in cages with a standard light cycle (12-h light, 12-h dark), at room temperature (22 ± 4 °C), with a relative humidity of 30–70%. Rats were identified by numbers on the cage cards. After arrival, rats were fed on a normal diet (Harlan Teklad diet 2014) and randomized to treatment groups (n = 5 per group) by baseline plasma plasminogen concentration and activity using a BRAT. LSN3441732 and LY3473329 were administered QD orally at three dose levels (3.7, 12.3 and 37 mg kg^−1; 3.2, 10.5 and 31.6 mg kg^−1 per dose, respectively) or vehicle (10 ml kg^−1, 1% HEC, 0.25% Tween-80, Antifoam) for four days. Terminal blood was drawn under general anaesthesia 24 h after the day-4 oral dose. Plasma samples were collected via the abdominal aorta into a premeasured anticoagulant BD Vacutainer used for blood collection (2.7 ml, buffered sodium citrate). […]
RNA was isolated from the liver using the PureLink RNA Mini Kit (Invitrogen) and quantified using the NanoDrop spectrophotometer (Thermo Fisher Scientific). […] Quantitative PCR was conducted using TaqMan reagents and primers (Plg Rn00585167_m1, Gapdh Rn99999916_s1). Relative quantitation was calculated using the comparative Ct method. Statistical significance was evaluated using JMP v.16.1.0 software (SAS).

As usually defined, the Kd is the equilibrium constant for the complex coming apart. Higher therefore signals weaker binding. Consider `Cl.Cl.O=C(Nc1cccc(C[C@H](C(=O)O)[C@H]2CCNC2)c1)Nc1cccc(C[C@H](C(=O)O)[C@H]2CCNC2)c1` [LSN3441732], for which the Kd on apo(a) KIV5–8 was < 15 nM. Besides, the “levels of hepatic Plg mRNA” value with Plg mRNA is “unchanged”.
